Measured values reported in PubChem BioAssay (NCI).
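Briefly, cells in 96-well plates were exposed to five compound concentrations for 48 h, and endpoints were estimated by linear interpolation. GI50 marks 50% less growth. Definition used: TGI = concentration required for complete inhibition of growth.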

Columns and labels:
Test in all cases: DTP human tumour cell line panel, 48 h
A549 NSCLC = test system: A549 NSCLC
CCRF-CEM leukemia = test system: CCRF-CEM leukemia
HOP-92 NSCLC = test system: HOP-92 NSCLC
LOX IMVI melanoma = test system: LOX IMVI melanoma
NCI-H226 lung = test system: NCI-H226 lung
NCI-H522 lung = test system: NCI-H522 lung
SNB-75 CNS = test system: SNB-75 CNS
TK-10 renal = test system: TK-10 renal
BT-549 breast = test system: BT-549 breast
SR leukemia = test system: SR leukemia

| SMILES | TGI (A549 NSCLC) [µM] | TGI (CCRF-CEM leukemia) [µM] | TGI (HOP-92 NSCLC) [µM] | TGI (LOX IMVI melanoma) [µM] | TGI (NCI-H226 lung) [µM] | TGI (NCI-H522 lung) [µM] | TGI (SNB-75 CNS) [µM] | TGI (TK-10 renal) [µM] | TGI (BT-549 breast) [µM] | TGI (SR leukemia) [µM] | GI50 (NCI-H226 lung) [µM] |
| --- | --- | --- | --- | --- | --- | --- | --- | --- | --- | --- | --- |
| CN1C(=O)CC2(C)c3cc(O)cc(Br)c3N(C)C12 (configuration not stated) | > 100 | > 100 | > 100 | > 100 | > 100 | > 100 | > 100 | > 100 |  |  |  |
| CC1(C)NC(=O)N(CCCCCCN2C(=O)NC(C)(C)C2=O)C1=O | > 100 | > 100 | > 100 | > 100 | > 100 | > 100 | > 100 | > 100 |  |  |  |
| N#CC(C#N)=NNc1ccc2cn[nH]c2c1 | > 100 | 55 | > 100 | > 100 | > 100 | 34.8 |  | 76.1 | > 100 | 55.5 |  |
| COc1cccc(C=O)c1C(=O)c1cc(O)ccc1O | > 100 | 80.2 | 33.1 | > 74 | > 100 |  | > 100 | > 56.7 |  | 24.1 |  |
| N#CC1C[C@@H]2CC3(CCC2CN1C(=O)c1ccccc1)OCCO3 (some centres not stated) | > 100 | > 100 | > 100 | > 100 | > 100 |  | > 100 | > 100 |  | > 100 | > 100 |
| CCc1ccccc1NC(=O)C(=O)C(C#N)c1ccccc1Cl (configuration not stated) | > 100 | > 100 | > 100 | 10.9 | > 100 |  | > 100 | 6.31 |  |  |  |
| O=C(CCC(=O)Nc1ccc(Cl)c(Cl)c1)CC(=O)c1ccc2ccccc2c1 | > 100 | > 100 | > 100 | > 100 | > 100 | > 100 | > 100 | > 100 |  |  |  |
| [O-]/N=[N+](/[O-])C1CCCCC1=[N+]1CCOCC1 (configuration not stated) | > 100 | > 100 | > 100 |  | > 100 | > 100 |  | > 100 |  | > 100 |  |
| COC(=O)Oc1nn(C(=O)OC)c(=O)c2ccccc12 | > 100 | > 100 |  | > 100 | > 100 | > 100 | > 100 | > 100 | > 100 | > 100 |  |
| COc1cc2c(cc1OC)C(C#N)N(C(=O)c1ccccc1)C=C2OC(=O)c1ccccc1 (configuration not stated) |  | > 100 | 77 | > 100 | 51.4 | 39.2 | 40 | 50.5 |  | > 100 |  |
| COc1ccc(-c2coc3cc(O)ccc3c2=O)cc1 | > 100 | > 100 |  |  | > 100 | > 100 | > 100 | > 100 |  | > 100 |  |
| Nc1nc(N)c(CCCCc2ccccc2)c(C=O)n1 | > 100 | 40.1 |  | 32.8 | 53.7 |  | 38 | 93 |  |  |  |
| O=C(NC(=Nc1ccccc1)SCSC(=Nc1ccccc1)NC(=O)c1ccco1)c1ccco1 | > 100 | > 100 | 53.7 | > 100 | > 100 | 91.5 | 35.1 | 70.4 |  |  |  |
